Data published in US12649733B2, “3,6-diamino-pyridazin-3-yl derivatives, pharmaceutical compositions containing them and their uses as pro-apoptotic agents” (LES LABORATOIRES SERVIER, priority 2019, dated 2026).

Key:
BCLXL [1] = molecular target: T1, BCLXL (Homo sapiens, UniProt Q07817, V10N/V9A); test: Fluorescence polarisation assay (PUMA-based probe displacement); assay type: binding; also: 20 nM protein, 10 nM fluorescent probe
BCLXL [2] = molecular target: T1, BCLXL; test: AlphaLISA assay (BIM peptide displacement); assay type: binding; settings: 20 pM protein, 1 nM peptide
Method: AlphaLISA assay measures an increase in alpha signal upon binding biotinylated GST(1-218)-(FACTOR_XA)-hs ? (2-209)(SEQ ID:02—GST UniProtKB® primary accession number P08515 and BCLXL UniProtKB® primary accession number Q07817-1) coupled to a Streptavidin labeled Alpha donor bead to N-terminally labeled peptide derived from BIM (Fluorescein-betaAla-Ahx-SEQID:05, wherein SEQ ID:05 is […]) coupled to an Anti-FTIC AlphaLISA acceptor bead.
GST(1-218)(FACTOR_XA)-hs ? (2-209) was biotinylated in 50 mM phosphate buffer using a 20 fold excess of EZ Link NHS-LC-Biotin (thermoFisher catalogue number 21336) overnight at 4° C.
The addition of a compound which binds competitively to the same site as the peptide will result in an decrease in the Alpha signal of the available donor bead-protein-peptide-acceptor bead complex due to displacement of the peptide.
An 11-point serial dilution of each compound was prepared in DMSO, the final buffer conditions were 10 mM 4-(2-hydroxyethyl)-1-piperazineethanesulfonic acid [HEPES], 150 mM NaCl, 0.05% Tween 20, pH 7.4 and 4% DMSO. The final protein concentration in the assay was 20 pM with the peptide present at 1 nM). Alpha beads were used at a final concentration of 5 ug/mL. The experiments were incubated for overnight at 23° C. after acceptor bead addition. Finally the donor bead is added and incubated for 2 hours at 23° C. before Alpha signal measured on a Biotek Synergy2 plate reader (Excitation 680 nm, emission 615 nm).

H146 cells = test: H146 cell viability, MTT assay; assay type: cell-based; settings: Homo sapiens, NCI-H146, 48 h, 48 h exposure
Outline: (§1)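 Cells grown in RPMI 1640 with 10% heat-inactivated FBS at 37° C, 5% CO2, exposed 48 h to nine 3.16-fold serial compound dilutions in triplicate. MTT added for 4 h, SDS/HCl solubilisation overnight, absorbance at 540 nm; IC50 by four-parameter fit.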

MOLT-4 cells = test: MOLT-4 cell viability, MTT assay; assay type: cell-based; settings: Homo sapiens, MOLT-4, 48 h, 48 h exposure
Outline: as §1

T1 sequence (Q07817 with tags, fused parts or gaps V9A/V10N): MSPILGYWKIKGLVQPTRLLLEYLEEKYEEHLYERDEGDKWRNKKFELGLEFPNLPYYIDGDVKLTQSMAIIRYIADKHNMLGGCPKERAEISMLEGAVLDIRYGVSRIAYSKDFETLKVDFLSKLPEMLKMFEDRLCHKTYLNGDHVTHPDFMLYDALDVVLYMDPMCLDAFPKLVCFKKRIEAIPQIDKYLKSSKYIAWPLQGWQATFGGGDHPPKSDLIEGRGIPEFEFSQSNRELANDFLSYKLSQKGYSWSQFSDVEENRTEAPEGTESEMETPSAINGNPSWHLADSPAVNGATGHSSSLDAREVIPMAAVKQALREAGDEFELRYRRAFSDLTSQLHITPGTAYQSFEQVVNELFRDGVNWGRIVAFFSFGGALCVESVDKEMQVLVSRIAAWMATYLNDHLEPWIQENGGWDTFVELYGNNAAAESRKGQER

SMILES	Ki (BCLXL [1]) [nM]	IC50 (BCLXL [2]) [nM]	IC50 (H146 cells) [nM]	IC50 (MOLT-4 cells) [nM]
COCCCc1sc(N(C)c2cc(C)c(Nc3nc4ccccc4s3)nn2)nc1C(=O)O [Example 60, 2-({6-[(1,3-Benzothiazol-2-yl)amino]-5-methylpyridazin-3-yl}(methyl)amino)-5-(3-methoxypropyl)-1,3-thiazole-4-carboxylic acid]	1.5	0.96	5800	2740
Cc1cc(N(CCC(O)CO)c2nc(C(=O)O)cs2)nnc1Nc1nc2ccccc2s1 (stereo not drawn) [Example 85, 2-[[6-(1,3-Benzothiazol-2-ylamino)-5-methyl-pyridazin-3-yl]-(3,4-dihydroxybutyl)amino]thiazole-4-carboxylic acid]	< 1	12	> 15000	> 15000
Cc1cc(N(C)c2nc(C(=O)O)c(C3CCN(c4ccccc4)CC3)s2)nnc1Nc1nc2ccccc2s1 [Example 91, 2-({6-[(1,3-Benzothiazol-2-yl)amino]-5-methylpyridazin-3-yl}(methyl)amino)-5-(1-phenylpiperidin-4-yl)-1,3-thiazole-4-carboxylic acid]	6.4	5.3	5390	1130
Cc1cc(N(C)c2ccc(-c3cnn(CC45CC6CC(CC(C6)C4)C5)c3C)c(C(=O)O)n2)nnc1Nc1nc2ccccc2s1 [Example 90, 3-{1-[(Adamantan-1-yl)methyl]-5-methyl-1H-pyrazol-4-yl}-6-({6-[(1,3-benzothiazol-2-yl)amino]-5-methylpyridazin-3-yl}(methyl)amino)pyridine-2-carboxylic acid]	< 1	0.023	201	23.3
CNCC#Cc1ccc(OCCCc2sc(N(CCCC(O)CO)c3cc(C)c(Nc4nc5ccccc5s4)nn3)nc2C(=O)O)c(F)c1 (stereo not drawn) [Example 119, 2-[[6-(1,3-Benzothiazol-2-ylamino)-5-methyl-pyridazin-3-yl]-(4,5-dihydroxypentyl)amino]-5-[3-[2-fluoro-4-[3-(methylamino)prop-1-ynyl]phenoxy]propyl]thiazole-4-carboxylic acid]	< 1	0.006	21.4	97.4
Cc1cc(N(C)c2nc(C(=O)O)c(CCCOc3ccccc3)s2)nnc1Nc1nc2ccccc2s1 [Example 63, 2-({6-[(1,3-Benzothiazol-2-yl)amino]-5-methylpyridazin-3-yl}(methyl)amino)-5-(3-phenoxypropyl)-1,3-thiazole-4-carboxylic acid]	< 1	0.1	205	85.3
Cc1c(Nc2nc(C(=O)O)c(CCCOc3ccc(C#CCN(C)C)cc3F)s2)nnc(Nc2nc3ccccc3s2)c1C [Example 3, 2-({6-[(1,3-Benzothiazol-2-yl)amino]-4,5-dimethylpyridazin-3-yl}amine)-5-(3-{4-[3-(dimethylamino)prop-1-yn-1-yl]-2-fluorophenoxy}propyl)-1,3-thiazole-4-carboxylic acid]	1.9	0.096	42	90
Cc1cc(N(CCC(O)CO)c2nc(C(=O)O)c(CCCOc3ccc(C#CCN(C)C)cc3F)s2)nnc1Nc1nc2ccccc2s1 (stereo not drawn) [Example 123, 2-[[6-(1,3-Benzothiazol-2-ylamino)-5-methyl-pyridazin-3-yl]-(3,4-dihydroxybutyl)amino]-5-[3-[4-[3-(dimethylamino)prop-1-ynyl]-2-fluoro-phenoxy]propyl]thiazole-4-carboxylic acid]	< 1	0.004	6.25	16.5
Cc1cc(N(C)c2nc(C(=O)O)c(C3CCN(S(C)(=O)=O)CC3)s2)nnc1Nc1nc2ccccc2s1 [Example 94, 2-({6-[(1,3-Benzothiazol-2-yl)amino]-5-methylpyridazin-3-yl}(methyl)amino)-5-(1-methanesulfonylpiperidin-4-yl)-1,3-thiazole-4-carboxylic acid]	67	51	4070	≥ 10000
Cc1cc(N(C)c2nc(C(=O)O)c(CC3(COc4ccc(C#CCN(C)C)cc4F)CC3)s2)nnc1Nc1nc2ccccc2s1 [Example 140, 2-({6-[(1,3-Benzothiazol-2-yl)amino]-5-methylpyridazin-3-yl}(methyl)amino)-5-{[1-({4-[3-(dimethylamino)prop-1-yn-1-yl]-2-fluorophenoxy}methyl)cyclopropyl]methyl}-1,3-thiazole-4-carboxylic acid]	< 1	0.024	142	23.4
COCCCN(c1cc(C)c(Nc2nc3ccccc3s2)nn1)c1nc(C(=O)O)c(CCCOc2ccc(C#CCN(C)C)cc2F)s1 [Example 54, 2-({6-[(1,3-Benzothiazol-2-yl)amino]-5-methylpyridazin-3-yl}(3-methoxypropyl)amino)-5-(3-{4-[3-(dimethylamino)prop-1-yn-1-yl]-2-fluorophenoxy}propyl)-1,3-thiazole-4-carboxylic acid]	1.4	0.025	35.2	5.07
COCCCN(c1cc(C)c(Nc2nc3ccccc3s2)nn1)c1nc(C(=O)O)c(CCCOc2ccccc2)s1 [Example 65, 2-{[6-[(1,3-Benzothiazol-2-yl)amino]-5-methylpyridazin-3-yl}(3-methoxypropyl)amino)-5-(3-phenoxypropyl)-1,3-thiazole-4-carboxylic acid]	< 1	1	865	236
Cc1cc(N(CCCCO)c2nc(C(=O)O)c(CCCOc3ccc(C#CC[N+](C)(C)CCCS(=O)(=O)[O-])cc3F)s2)nnc1Nc1nc2ccccc2s1 [Example 130, 3-[3-[4-[3-[2-[[6-(1,3-Benzothiazol-2-ylamino)-5-methyl-pyridazin-3-yl]-(4-hydroxybutyl)amino]-4-carboxy-thiazol-5-yl]propoxy]-3-fluoro-phenyl]prop-2-ynyl-dimethyl-ammonio]propane-1-sulfonate]	< 1	0.0054	201	108
Cc1cc(N(C)c2nc(C(=O)O)c(C3CCN(S(=O)(=O)c4ccccc4)CC3)s2)nnc1Nc1nc2ccccc2s1 [Example 92, 5-[1-(Benzenesulfonyl)piperidin-4-yl]-2-({6-[(1,3-benzothiazol-2-yl)amino]-5-methylpyridazin-3-yl}(methyl)amino)-1,3-thiazole-4-carboxylic acid]	68	46	> 15000	> 15000
CNCC#Cc1ccc(OCCCc2sc(N(CCCO)c3cc(C)c(Nc4nc5ccccc5s4)nn3)nc2C(=O)O)c(F)c1 [Example 127, 2-[[6-(1,3-Benzothiazol-2-ylamino)-5-methyl-pyridazin-3-yl]-(3-hydroxypropyl)amino]-5-[3-[2-fluoro-4-[3-(methylamino)prop-1-ynyl]phenoxy]propyl]thiazole-4-carboxylic acid]	< 1	0.0066	9.04	11.3
Cc1cc(N(C)c2nc(C(=O)O)c(C[C@H](C)COc3ccc(C#CCN(C)C)cc3F)s2)nnc1Nc1nc2ccccc2s1 [Example 161, 2-({6-[(1,3-Benzothiazol-2-yl)amino]-5-methylpyridazin-3-yl}(methyl)amino)-5-[(2S)-3-{4-[3-(dimethylamino)prop-1-yn-1-yl]-2-fluorophenoxy}-2-methylpropyl]-1,3-thiazole-4-carboxylic acid]	< 1	0.032	30.2	3.23
Cc1cc(N(C)c2nc(C(=O)O)c(CCCOc3ccc(C#CC[N+](C)(C)CCCS(=O)(=O)[O-])cc3F)s2)nnc1Nc1nc2ccccc2s1 [Example 101, 3-[3-[4-[3-[2-[[6-(1,3-Benzothiazol-2-ylamino)-5-methyl-pyridazin-3-yl]-methyl-amino]-4-carboxy-thiazol-5-yl]propoxy]-3-fluoro-phenyl]prop-2-ynyl-dimethyl-ammonio]propane-1-sulfonate]	< 1	0.0022	1190	483
CNCC#Cc1ccc(OCCCc2sc(N(CCC(O)CO)c3cc(C)c(Nc4nc5ccccc5s4)nn3)nc2C(=O)O)c(F)c1 (stereo not drawn) [Example 108, 2-[[6-(1,3-Benzothiazol-2-ylamino)-5-methyl-pyridazin-3-yl]-(3,4-dihydroxybutyl)amino]-5-[3-[2-fluoro-4-[3-(methylamino)prop-1-ynyl]phenoxy]propyl]thiazole-4-carboxylic acid]	< 1	0.0066	22.3	46.7
